PubChem BioAssay (NCI)
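Assay format: 96-well plates, 48-hour exposure. TGI is the concentration that stops growth completely.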

How the values were obtained:
Test in all cases: inhibition of tumour cell growth, NCI panel, 48 h
ACHN renal = system: ACHN renal
HOP-92 NSCLC = system: HOP-92 NSCLC
NCI/ADR-RES ovarian = system: NCI/ADR-RES ovarian
MDA-MB-435 = system: MDA-MB-435
SNB-75 CNS = system: SNB-75 CNS
HCT-116 colon = system: HCT-116 colon
HCC-2998 colon = system: HCC-2998 colon
U251 CNS = system: U251 CNS
RXF 393 renal = system: RXF 393 renal
UACC-62 melanoma = system: UACC-62 melanoma
CCRF-CEM leukemia = system: CCRF-CEM leukemia
SF-268 CNS = system: SF-268 CNS

| Compound | TGI (ACHN renal) | TGI (HOP-92 NSCLC) | TGI (NCI/ADR-RES ovarian) | TGI (MDA-MB-435) | TGI (SNB-75 CNS) | TGI (HCT-116 colon) | TGI (HCC-2998 colon) | TGI (U251 CNS) | TGI (RXF 393 renal) | TGI (UACC-62 melanoma) | TGI (CCRF-CEM leukemia) | TGI (SF-268 CNS) |
| --- | --- | --- | --- | --- | --- | --- | --- | --- | --- | --- | --- | --- |
| CC1=CC(=O)/C(=C/N2C(=O)CNC2=S)C(=O)O1 | > 100 µM | > 100 µM | > 100 µM | > 100 µM | > 100 µM | > 100 µM | > 100 µM | > 100 µM | – | – | – | – |
| C#CCOC(=O)[C@@H](C)c1ccc2cc(OC)ccc2c1 | > 100 µM | > 100 µM | > 100 µM | > 100 µM | > 100 µM | > 100 µM | – | > 100 µM | > 100 µM | > 100 µM | > 100 µM | > 100 µM |
| CC(=O)OCCCCn1cnc2c(Cl)nc(Nc3ccccc3)nc21 | > 100 µM | – | > 100 µM | > 100 µM | – | > 100 µM | > 100 µM | > 100 µM | – | > 100 µM | > 100 µM | – |
| O=C(c1cccc2cc(O)ccc12)c1cn(CCN2CCOCC2)c2ccccc12 | > 100 µM | 71.6 µM | – | – | – | 38.9 µM | – | – | 43.6 µM | 38.5 µM | 34.4 µM | > 100 µM |
| S=C(S)N1CCN(c2ccccc2)CC1 | > 100 µM | > 100 µM | > 100 µM | > 100 µM | > 100 µM | > 100 µM | > 100 µM | > 100 µM | > 100 µM | – | – | > 100 µM |
| COc1ccc(/C=C2/SC(c3c(O)ccc4ccccc34)N(NC(=O)CCCCCCCCC(=O)NN3C(=O)/C(=C\c4ccc(OC)c(OC)c4)SC3c3c(O)ccc4ccccc34)C2=O)cc1OC (stereo unspecified) | > 54.1 µM | 23.3 µM | 32.1 µM | > 100 µM | > 100 µM | > 100 µM | > 100 µM | 96.8 µM | > 79.7 µM | 11.2 µM | – | > 100 µM |
| C=CCN(c1cc(OC)c2c(c1[N+](=O)[O-])C(C)(SC)C(=O)N2)S(C)(=O)=O (stereo unspecified) | > 100 µM | > 100 µM | > 100 µM | > 100 µM | > 100 µM | > 100 µM | > 100 µM | > 100 µM | – | > 100 µM | – | > 100 µM |
| C(/C=C/Nc1ccc(-c2ccccc2)cc1)=Nc1ccc(-c2ccccc2)cc1 | > 100 µM | > 100 µM | > 100 µM | > 100 µM | > 100 µM | > 100 µM | – | > 100 µM | > 100 µM | > 100 µM | > 100 µM | > 100 µM |
| CCOC(OCC)[C@H](N)[C@@H](O)[C@@H](O)[C@H]1COC(C)(C)O1 | > 100 µM | – | > 100 µM | > 100 µM | > 100 µM | > 100 µM | – | > 100 µM | – | > 100 µM | > 100 µM | > 100 µM |
| C(#C[C@@]12CCC[C@@H]1N(Cc1ccccc1)CO2)c1ccc2c(c1)OCO2 | > 100 µM | – | > 100 µM | > 100 µM | > 100 µM | > 100 µM | > 100 µM | > 100 µM | > 100 µM | > 100 µM | > 100 µM | > 100 µM |
| C=COC(=O)N1C2CCCC(Cl)(C(C)=O)C1CC2 (stereo unspecified) | > 100 µM | > 100 µM | > 100 µM | > 100 µM | > 100 µM | > 100 µM | > 100 µM | > 100 µM | – | > 100 µM | > 100 µM | > 100 µM |
| Clc1nc(Nc2nc3ccccc3[nH]2)nc(Cl)c1-c1ccccc1 | 34.7 µM | 35 µM | 92.7 µM | > 100 µM | 39.7 µM | > 100 µM | – | 32.7 µM | 35.6 µM | 36.9 µM | 66.5 µM | > 100 µM |
| COc1cc(OC)cc(C(=O)Cc2c(C(=O)c3ccccc3)c3ccccc3n2C(=O)c2ccccc2)c1 | > 100 µM | 31.3 µM | – | – | > 100 µM | > 100 µM | > 100 µM | > 100 µM | > 100 µM | > 100 µM | > 100 µM | > 100 µM |
| CCCCC(N)CSSCC(N)CCCC (stereo unspecified) | > 100 µM | – | – | – | > 100 µM | 31.8 µM | 35.4 µM | – | – | 41.1 µM | 64.2 µM | 61.5 µM |
| O=C(NNC(=O)c1c(Cl)c(Cl)c(Cl)c(Cl)c1-c1nc2ccccc2[nH]1)c1ccc(Cl)cc1 | > 100 µM | 84.7 µM | > 100 µM | 69.8 µM | > 100 µM | > 100 µM | – | – | > 100 µM | > 100 µM | 67.9 µM | > 100 µM |
| CC(C)C1=CC23CCC4C(C)(C(=O)O)CCCC4(C)C2CC1C1C(=O)N(c2cccc(N4C(=O)C5C6CC7C8(C)CCCC(C)(C(=O)O)C8CCC7(C=C6C(C)C)C5C4=O)c2)C(=O)C13 (stereo unspecified) | 26.1 µM | 39.6 µM | – | 15.2 µM | – | 21.3 µM | 20.3 µM | 11 µM | 27 µM | 80.1 µM | 26.2 µM | 27.8 µM |
| COc1ccc(NS(=O)(=O)c2ccc(N=C3C=C(Nc4ccc(S(=O)(=O)Nc5ccc(OC)nn5)cc4)C(=O)c4ccccc43)cc2)nn1 | 37.8 µM | 88.8 µM | – | – | 35.1 µM | 32 µM | 34.1 µM | 33.2 µM | 32.8 µM | 32.6 µM | > 100 µM | 52.9 µM |
| Cc1c(C#N)c(N)n(C2OC(CO)C(O)C(O)C2O)c(=S)c1C#N (stereo unspecified) | > 100 µM | > 100 µM | – | – | > 100 µM | > 100 µM | > 100 µM | > 100 µM | > 100 µM | > 100 µM | > 100 µM | > 100 µM |
| C=C(C)C1CC2=C(O1)C(=O)c1cccc(O)c1C2=O (stereo unspecified) | 3.23 µM | 11.5 µM | 2.78 µM | 0.271 µM | 3.87 µM | – | 3.97 µM | 3.01 µM | 2.54 µM | 2.18 µM | – | 1.47 µM |
| Fc1cc2nc3n(c2cc1F)C(c1c(Cl)cccc1Cl)SC3 (stereo unspecified) | 31.7 µM | 30.8 µM | 37.7 µM | 28.9 µM | 26.8 µM | 25.2 µM | 29.3 µM | 31.4 µM | 28.5 µM | 26.4 µM | – | 34.4 µM |
